Experimental data: patent US11530220B2, “Substituted imidazo[1,5-a]pyrazines and [1,2,4]triazolo[4,3-a]pyrazines for the modulation of AhR” (IDEAYA BIOSCIENCES, INC., priority 2018, dated 2022)
Where two headings read alike, the source gives them in different places.

Biological target: T1, hAhR (Homo sapiens, UniProt P35869)
T1 construct: Stably integrated DRE-luciferase cell lines were generated by transducing the both cell lines with Cignal XRE luciferase reporter (Qiagen) lentiviral particles; endogenous in cells; host or cells: HEPG2 (human hepatoma) with stably integrated XRE/DRE-luciferase reporter
T1 sequence (P35869 11-848): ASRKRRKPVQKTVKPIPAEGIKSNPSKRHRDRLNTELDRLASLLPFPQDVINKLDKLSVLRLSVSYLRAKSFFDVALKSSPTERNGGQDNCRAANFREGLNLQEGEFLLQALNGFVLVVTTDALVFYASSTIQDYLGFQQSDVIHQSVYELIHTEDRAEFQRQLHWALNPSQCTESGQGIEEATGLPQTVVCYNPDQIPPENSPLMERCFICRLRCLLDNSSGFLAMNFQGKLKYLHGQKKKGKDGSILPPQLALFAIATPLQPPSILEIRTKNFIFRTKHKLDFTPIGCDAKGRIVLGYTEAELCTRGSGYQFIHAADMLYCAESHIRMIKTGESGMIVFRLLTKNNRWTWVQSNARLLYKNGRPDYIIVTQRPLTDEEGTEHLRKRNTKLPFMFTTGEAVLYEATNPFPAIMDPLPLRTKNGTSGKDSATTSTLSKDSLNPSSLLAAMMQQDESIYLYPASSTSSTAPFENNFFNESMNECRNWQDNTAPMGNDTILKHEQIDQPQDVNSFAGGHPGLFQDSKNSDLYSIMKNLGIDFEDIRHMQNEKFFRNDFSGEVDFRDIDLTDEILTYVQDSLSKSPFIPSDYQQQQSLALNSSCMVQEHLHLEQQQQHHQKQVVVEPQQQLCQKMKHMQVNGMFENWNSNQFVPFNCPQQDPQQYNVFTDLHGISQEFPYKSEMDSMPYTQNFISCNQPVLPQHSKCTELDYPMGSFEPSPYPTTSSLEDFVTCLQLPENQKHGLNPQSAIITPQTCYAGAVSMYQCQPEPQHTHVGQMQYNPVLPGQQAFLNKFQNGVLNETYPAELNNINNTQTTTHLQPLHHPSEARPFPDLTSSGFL
Test: DRE-luciferase transcriptional assay, antagonist mode, in HEPG2 DRE-Luc cells stimulated with TCDD
Format: cell-based
Conditions: for IC50: relative IC50, read-out: IC50 hAhR (antagonist mode); for Emax: read-out: HEPG2 % Max Inhibition
Procedure: HEPG2 and HEPA1C1C7 cells were maintained in MEM and αMEM without nucleosides supplemented with 10% heat inactivated FBS respectively. Stably integrated DRE-luciferase cell lines were generated by transducing the both cell lines with Cignal XRE luciferase reporter (Qiagen) lentiviral particles according to the manufacturer protocol. For both cell lines stably integrated reporter cell lines were selected for the presence of 2 μg/mL puromycin. Following selection of stably integrated cell line pools, clonal cell lines were isolated by limiting dilution in 96-well plates. Transcriptional assays were performed by seeding 100 μL of cells at a density of 250,000 or 100,000 cells/mL, for HEPG2 and HEPA1C1C7 DRE-Luc cells respectively, into 96-well cell culture plates in OptiMEM supplemented with 0.5% heat inactivated FBS and allowed to attach overnight. For antagonist assays, the compounds were added in a semi-log dose response using a D300e Digital Dispenser (Tecan) followed normalization with vehicle (DMSO). Immediately following compound addition […] of 2,3,7,8-Tetrachlorodibenzo-p-dioxin (TCDD) was added to the cells to a final concentration of 3 nM or 0.3 nM for the HEPG2 and HEPA1C1C7 DRE-Luc cells respectively. Following 24 h incubation the medium was removed and the cells were lysed in 25 μL of Reporter Lysis Buffer (Promega). Firefly luciferase activity was measured immediately following the addition of 50 μL Luciferase Assay Reagent (Promega). The percent maximal activity for each point was determined using the following equation: 100−(RLUsample−RLUvehicle−TCDD)/(RLUvehicle+TCDD RLUvehicle−TCDD)*100. The relative IC50, defined as the compound concentration required to reduce the TCDD induced response between the top and bottom plateau of each individual dose response curve by half, for each compound was determined using Prism 7 (GraphPad Software).

[1] = HEPG2 DRE-Luc cells, 3 nM TCDD, 24 h incubation

Row | IC50 [1] | Emax [1] | SMILES | Emax (HepG2, 24 h)
1 | 1000 to 10000 nM | 31% | Cc1nccn1-c1cn2c(C(C)C)cnc2c(NCc2ccc(C(N)=O)cc2)n1 [Example 31, 4-({[3-isopropyl-6-(2-methylimidazolyl)-4-hydroimidazo[1,2-a]pyrazin-8-yl]amino}methyl)benzamide] | 
2 | 200 to 500 nM | 100% | Cc1nccn1-c1cn2c(C(C)C)cnc2c(OCCc2c[nH]c3ccccc23)n1 [Example 32, 8-(2-indol-3-ylethoxy)-3-(methylethyl)-6-(2-methylimidazolyl)-4-hydroimidazo[1,2-a]pyrazine] | 

Row | SMILES | IC50 [1] | Emax [1] | Emax (HepG2, 24 h)
3 | CC(C)c1cnc2c(NCCn3cnc4ccccc43)nc(-c3cncc(F)c3)cn12 [Example 30, (2-benzimidazolylethyl)[6-(5-fluoro(3-pyridyl))-3-isopropyl(4-hydroimidazo[1,2-a]pyrazin-8-yl)]amine] | 1000 to 10000 nM |  | 94%
